Bridge positions count the residues as written; N and C are the ends. Square brackets hold non-standard residues; d marks the D form. Peptide text beside a SMILES is read from it. * marks the point of attachment. ξ: configuration not given here. Phe(4-COOH) = N[C@@H](Cc1ccc(C(=O)O)cc1)C(=O)O; Bip = N[C@@H](Cc1ccc(-c2ccccc2)cc1)C(=O)O; Phe(3-Me) = Cc1cccc(C[C@H](N)C(=O)O)c1; hArg = N=C(N)NCCCC[C@H](N)C(=O)O; hCit = NC(=O)NCCCC[C@H](N)C(=O)O; 4Pal = N[C@@H](Cc1ccncc1)C(=O)O; 3Thi = N[C@@H](Cc1ccsc1)C(=O)O; Cha = N[C@@H](CC1CCCCC1)C(=O)O; aThr = C[C@H](O)[C@H](N)C(=O)O; Thr(3ξ) = CC(O)[C@H](N)C(=O)O; 12Ado = NCCCCCCCCCCCC(=O)O; Carboxymethyl = O=C(O)C*; Orn = NCCC[C@H](N)C(=O)O; Aun = NCCCCCCCCCCC(=O)O; Dab = NCC[C@H](N)C(=O)O; Dap = NC[C@H](N)C(=O)O; AEEA = NCCOCCOCC(=O)O
Target: T1, PD-1/PD-L1 interaction (PE-labeled human PD-L1-Ig binding to Jurkat cell line over-expressing human PD-1) (Homo sapiens, UniProt Q15116)
T1 construct: expressed in transfected cells; host or cells: Jurkat
Test: Jurkat-PD-1 Cell Binding High-Content Screening Assay (CBA)
Type: cell-based
Settings: Jurkat cell line over-expressing human PD-1; PE-labeled PD-L1-Ig 20 nM final; read-out: Jurkat hPD1-PDL1 IC50
Summary of the method: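 Binding of fluorescent PD-L1-Ig (20 nM final) to Jurkat-PD-1 cells was measured by automated imaging after 1 h, following a 2 h compound pre-treatment at 37° C.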

T1 sequence (Q15116 25-288): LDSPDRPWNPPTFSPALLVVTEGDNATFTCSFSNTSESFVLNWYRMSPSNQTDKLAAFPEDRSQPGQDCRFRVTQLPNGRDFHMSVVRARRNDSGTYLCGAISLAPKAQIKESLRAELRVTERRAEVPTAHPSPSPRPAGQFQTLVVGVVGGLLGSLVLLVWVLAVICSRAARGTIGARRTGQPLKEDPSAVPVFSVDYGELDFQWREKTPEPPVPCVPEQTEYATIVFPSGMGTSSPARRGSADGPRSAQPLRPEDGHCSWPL

Row | Compound | IC50
1 | CC(C)C[C@H]1NC(=O)[C@H](CCCN)NC(=O)[C@H](C(C)C)NC(=O)[C@H](Cc2ccc(-c3ccccc3)cc2)NC(=O)[C@H](C(C)C)NC(=O)[C@H](Cc2c[nH]c3ccccc23)NC(=O)[C@H](CC(=O)O)NC(=O)[C@H](CCCCNC(=N)N)NC(=O)[C@H](Cc2ccc(OCC(=O)O)cc2)NC(=O)CSC[C@@H](C(=O)NCCOCCOCC(=O)N[C@@H](CCCCN)C(=O)NCCCCCCCCCCCC(=O)O)NC(=O)[C@H](CCN)NC(=O)[C@H](C(C)C)NC(=O)[C@H](CC2CCCCC2)NC(=O)[C@H](Cc2cnc[nH]2)NC1=O [Compound 3158] ({CH2CO}-Y(Carboxymethyl)[hArg]DWV[Bip]V[Orn][dL]H[Cha]V[Dab]C[AEEA]K[12Ado]-OH; thioether N-14) | 107 nM
2 | CC(C)C[C@H]1NC(=O)[C@H](CCCN)NC(=O)[C@H](C(C)C)NC(=O)[C@H](Cc2ccc(-c3ccccc3)cc2)NC(=O)[C@H](C(C)C)NC(=O)[C@H](Cc2c[nH]c3ccccc23)NC(=O)[C@H](CC(=O)O)NC(=O)[C@H](Cc2ccc(OCC(=O)O)cc2)NC(=O)[C@H](CCCCNC(=N)N)NC(=O)CSC[C@@H](C(=O)N[C@@H](CCCN)C(=O)NCCCCCCCCCCC(=O)O)NC(=O)[C@H](C(C)O)NC(=O)[C@H](C(C)C)NC(=O)[C@H](CC2CCCCC2)NC(=O)[C@H](Cc2cnc[nH]2)NC1=O (stereo partly drawn) [Compound 3159] ({CH2CO}-[hArg]Y(Carboxymethyl)DWV[Bip]V[Orn][dL]H[Cha]V[Thr(3ξ)]C[Orn][Aun]-OH; thioether N-14) | 42.6 nM
3 | Cc1cccc(C[C@@H]2NC(=O)[C@H](CC(=O)O)NC(=O)[C@H](Cc3ccc(OCC(=O)O)cc3)NC(=O)[C@H](CN)NC(=O)CSC[C@@H](C(=O)N[C@@H](CCCCN)C(=O)NCCCCCCCCCCC(=O)O)NC(=O)[C@H](C(C)O)NC(=O)[C@H](C(C)C)NC(=O)[C@H](CC3CCCCC3)NC(=O)[C@H](Cc3cnc[nH]3)NC(=O)[C@@H](CC(C)C)NC(=O)[C@H](CCCN)NC(=O)[C@H](CCC(=O)O)NC(=O)[C@H](Cc3ccc(-c4ccccc4)cc3)NC(=O)[C@H](C(C)C)NC2=O)c1 (stereo partly drawn) [Compound 3160] ({CH2CO}-[Dap]Y(Carboxymethyl)D[Phe(3-Me)]V[Bip]E[Orn][dL]H[Cha]V[Thr(3ξ)]CK[Aun]-OH; thioether N-14) | 37.5 nM
4 | Cc1cccc(C[C@@H]2NC(=O)[C@H](CC(=O)O)NC(=O)[C@H](Cc3ccc(OCC(=O)O)cc3)NC(=O)[C@H](CCCCNC(=N)N)NC(=O)CSC[C@@H](C(=O)N[C@@H](CCCCN)C(=O)NCCCCCCCCCCC(=O)O)NC(=O)[C@H](C(C)O)NC(=O)[C@H](C(C)C)NC(=O)[C@H](CC3CCCCC3)NC(=O)[C@H](Cc3cnc[nH]3)NC(=O)[C@@H](CC(C)C)NC(=O)[C@H](CCCN)NC(=O)[C@H](CCC(=O)O)NC(=O)[C@H](Cc3ccc(-c4ccccc4)cc3)NC(=O)[C@H](C(C)C)NC2=O)c1 (stereo partly drawn) [Compound 3161] ({CH2CO}-[hArg]Y(Carboxymethyl)D[Phe(3-Me)]V[Bip]E[Orn][dL]H[Cha]V[Thr(3ξ)]CK[Aun]-OH; thioether N-14) | 38.9 nM
5 | Cc1cccc(C[C@@H]2NC(=O)[C@H](CC(=O)O)NC(=O)[C@H](Cc3ccc(OCC(=O)O)cc3)NC(=O)[C@H](CCCCNC(=N)N)NC(=O)CSC[C@@H](C(=O)NCCOCCOCC(=O)N[C@@H](CCCCN)C(=O)NCCCCCCCCCCC(=O)O)NC(=O)[C@H]([C@H](C)O)NC(=O)[C@H](C(C)C)NC(=O)[C@H](CC3CCCCC3)NC(=O)[C@H](CC(N)=O)NC(=O)[C@@H](CC(C)C)NC(=O)[C@H](CCCN)NC(=O)[C@H](C(C)C)NC(=O)[C@H](Cc3ccc(-c4ccccc4)cc3)NC(=O)[C@H](C(C)C)NC2=O)c1 [Compound 3162] ({CH2CO}-[hArg]Y(Carboxymethyl)D[Phe(3-Me)]V[Bip]V[Orn][dL]N[Cha]V[aThr]C[AEEA]K[Aun]-OH; thioether N-14) | 26.3 nM
6 | CC(C)C[C@H]1NC(=O)[C@H](CCCN)NC(=O)[C@H](C(C)C)NC(=O)[C@H](Cc2ccc(-c3ccccc3)cc2)NC(=O)[C@H](C(C)C)NC(=O)[C@H](Cc2c[nH]c3ccccc23)NC(=O)[C@H](CC(=O)O)NC(=O)[C@H](Cc2ccc(OCC(=O)O)cc2)NC(=O)[C@H](CCCCNC(=N)N)NC(=O)CSC[C@@H](C(=O)NCCOCCOCC(=O)N[C@@H](CCCCN)C(=O)NCCCCCCCCCCC(=O)O)NC(=O)[C@H]([C@H](C)O)NC(=O)[C@H](C(C)C)NC(=O)[C@H](CC2CCCCC2)NC(=O)[C@H](CC(N)=O)NC1=O [Compound 3163] ({CH2CO}-[hArg]Y(Carboxymethyl)DWV[Bip]V[Orn][dL]N[Cha]V[aThr]C[AEEA]K[Aun]-OH; thioether N-14) | 22.3 nM
7 | CC(C)C[C@H]1NC(=O)[C@H](CCCN)NC(=O)[C@H](C(C)C)NC(=O)[C@H](Cc2ccc(-c3ccccc3)cc2)NC(=O)[C@H](C(C)C)NC(=O)[C@H](Cc2c[nH]c3ccccc23)NC(=O)[C@H](CC(=O)O)NC(=O)[C@H](Cc2ccc(OCC(=O)O)cc2)NC(=O)[C@H](CN)NC(=O)CSC[C@@H](C(=O)NCCOCCOCC(=O)N[C@@H](CCCCN)C(=O)NCCCCCCCCCCC(=O)O)NC(=O)[C@H]([C@H](C)O)NC(=O)[C@H](C(C)C)NC(=O)[C@H](CC2CCCCC2)NC(=O)[C@H](CC(N)=O)NC1=O [Compound 3164] ({CH2CO}-[Dap]Y(Carboxymethyl)DWV[Bip]V[Orn][dL]N[Cha]V[aThr]C[AEEA]K[Aun]-OH; thioether N-14) | 29.9 nM
8 | CC(C)C[C@H]1NC(=O)[C@H](CCCN)NC(=O)[C@H](C(C)C)NC(=O)[C@H](Cc2ccc(-c3ccccc3)cc2)NC(=O)[C@H](C(C)C)NC(=O)[C@H](Cc2c[nH]c3ccccc23)NC(=O)[C@H](CC(=O)O)NC(=O)[C@H](Cc2ccc(OCC(=O)O)cc2)NC(=O)[C@H](CCCCNC(=N)N)NC(=O)CSC[C@@H](C(=O)NCCOCCOCC(=O)N[C@@H](CCCCN)C(=O)NCCCCCCCCCCCC(=O)O)NC(=O)[C@H](C(C)O)NC(=O)[C@H](C(C)C)NC(=O)[C@H](CC2CCCCC2)NC(=O)[C@H](CCN)NC1=O (stereo partly drawn) [Compound 3165] ({CH2CO}-[hArg]Y(Carboxymethyl)DWV[Bip]V[Orn][dL][Dab][Cha]V[Thr(3ξ)]C[AEEA]K[12Ado]-OH; thioether N-14) | 30.6 nM
9 | CC(C)C[C@H]1NC(=O)[C@H](CCCCN)NC(=O)[C@H](C(C)C)NC(=O)[C@H](Cc2ccc(-c3ccccc3)cc2)NC(=O)[C@H](C(C)C)NC(=O)[C@H](Cc2c[nH]c3ccccc23)NC(=O)[C@H](CC(=O)O)NC(=O)[C@H](Cc2ccc(OCC(=O)O)cc2)NC(=O)[C@H](Cc2ccsc2)NC(=O)CSC[C@@H](C(=O)NCCOCCOCC(=O)N[C@@H](CCCN)C(=O)NCCCCCCCCCCC(=O)O)NC(=O)[C@H](C(C)O)NC(=O)[C@H](C(C)C)NC(=O)[C@H](CC2CCCCC2)NC(=O)[C@H](CCN)NC1=O (stereo partly drawn) [Compound 3167] ({CH2CO}-[3Thi]Y(Carboxymethyl)DWV[Bip]VK[dL][Dab][Cha]V[Thr(3ξ)]C[AEEA][Orn][Aun]-OH; thioether N-14) | 59 nM
10 | CC(C)C[C@H]1NC(=O)[C@H](CCCN)NC(=O)[C@H](C(C)C)NC(=O)[C@H](Cc2ccc(-c3ccccc3)cc2)NC(=O)[C@H](C(C)C)NC(=O)[C@H](Cc2c[nH]c3ccccc23)NC(=O)[C@H](CC(=O)O)NC(=O)[C@H](Cc2ccc(OCC(=O)O)cc2)NC(=O)[C@H](Cc2ccsc2)NC(=O)CSC[C@@H](C(=O)N[C@@H](CCCN)C(=O)NCCOCCOCC(=O)NCCCCCCCCCCCC(=O)O)NC(=O)[C@H](C(C)O)NC(=O)[C@H](C(C)C)NC(=O)[C@H](CC2CCCCC2)NC(=O)[C@H](CCN)NC1=O (stereo partly drawn) [Compound 3168] ({CH2CO}-[3Thi]Y(Carboxymethyl)DWV[Bip]V[Orn][dL][Dab][Cha]V[Thr(3ξ)]C[Orn][AEEA][12Ado]-OH; thioether N-14) | 73.6 nM
11 | CC(C)C[C@H]1NC(=O)[C@H](CCCN)NC(=O)[C@H](C(C)C)NC(=O)[C@H](Cc2ccc(-c3ccccc3)cc2)NC(=O)[C@H](C(C)C)NC(=O)[C@H](Cc2c[nH]c3ccccc23)NC(=O)[C@H](CC(=O)O)NC(=O)[C@H](CCCCNC(N)=O)NC(=O)[C@H](Cc2ccc(OCC(=O)O)cc2)NC(=O)CSC[C@@H](C(=O)NCC(=O)NCCOCCOCC(=O)N[C@@H](CCCN)C(=O)NCCCCCCCCCCCC(=O)O)NC(=O)[C@H](CN)NC(=O)[C@H](C(C)C)NC(=O)[C@H](CC2CCCCC2)NC(=O)[C@H](CCN)NC1=O [Compound 3169] ({CH2CO}-Y(Carboxymethyl)[hCit]DWV[Bip]V[Orn][dL][Dab][Cha]V[Dap]CG[AEEA][Orn][12Ado]-OH; thioether N-14) | 20.8 nM
12 | CC(C)C[C@H]1NC(=O)[C@H](CCCN)NC(=O)[C@H](C(C)C)NC(=O)[C@H](Cc2ccc(-c3ccccc3)cc2)NC(=O)[C@H](C(C)C)NC(=O)[C@H](Cc2c[nH]c3ccccc23)NC(=O)[C@H](CC(=O)O)NC(=O)[C@H](Cc2ccncc2)NC(=O)[C@H](Cc2ccc(OCC(=O)O)cc2)NC(=O)CSC[C@@H](C(=O)NCC(=O)NCCOCCOCC(=O)N[C@@H](CCCN)C(=O)NCCCCCCCCCCCC(=O)O)NC(=O)[C@H](CN)NC(=O)[C@H](C(C)C)NC(=O)[C@H](CC2CCCCC2)NC(=O)[C@H](CCN)NC1=O [Compound 3170] ({CH2CO}-Y(Carboxymethyl)[4Pal]DWV[Bip]V[Orn][dL][Dab][Cha]V[Dap]CG[AEEA][Orn][12Ado]-OH; thioether N-14) | 17.5 nM
13 | CC(C)C[C@H]1NC(=O)[C@H](CCCN)NC(=O)[C@H](C(C)C)NC(=O)[C@H](Cc2ccc(-c3ccccc3)cc2)NC(=O)[C@H](C(C)C)NC(=O)[C@H](Cc2c[nH]c3ccccc23)NC(=O)[C@H](CC(=O)O)NC(=O)[C@H](Cc2ccc(C(=O)O)cc2)NC(=O)[C@H](Cc2ccc(OCC(=O)O)cc2)NC(=O)CSC[C@@H](C(=O)NCC(=O)NCCOCCOCC(=O)N[C@@H](CCCN)C(=O)NCCCCCCCCCCCC(=O)O)NC(=O)[C@H](CN)NC(=O)[C@H](C(C)C)NC(=O)[C@H](CC2CCCCC2)NC(=O)[C@H](CCN)NC1=O [Compound 3171] ({CH2CO}-Y(Carboxymethyl)[Phe(4-COOH)]DWV[Bip]V[Orn][dL][Dab][Cha]V[Dap]CG[AEEA][Orn][12Ado]-OH; thioether N-14) | 6.1 nM
